Results from patent US9073974B2, “RGD-containing cyclic peptides” (The Regents of the University of California, priority 2009, dated 2015).
Numbered stars: 1 amine (or outer) side, 2 acyl side, 3 side chain; on linkers, the order of the positions; unused ones are H or OH. Bridge positions count the residues as written; N and C are the ends. Square brackets hold non-standard residues; d marks the D form. Peptide text beside a SMILES is read from it. * marks the point of attachment. Pro(5R-Ph) = O=C(O)[C@@H]1CC[C@H](c2ccccc2)N1; Benzoyl(3,5-(OH)2) = O=C(c1cc(O)cc(O)c1)*; N(CH2CH2COOH)Gly = O=C(O)CCNCC(=O)O; NH(CH2CH2O)2CH2CH2NH2 = NCCOCCOCCN*; dBta = N[C@H](Cc1csc2ccccc12)C(=O)O; X2 = O=C(C1(N[*:1])CCC(O)CC1)[*:2]; Hydrocinnamoyl = O=C(CCc1ccccc1)*; dCit = NC(=O)NCCC[C@@H](N)C(=O)O; dPen = CC(C)(S)[C@@H](N)C(=O)O; Agp = N=C(N)NC[C@H](N)C(=O)O; Suc = O=C(CCC(=O)[*:2])[*:1]; Nicotinoyl = O=C(c1cccnc1)*; Carboxymethyl = O=C(O)C*; Isobutyryl = CC(C)C(=O)*; Pentanoyl = CCCCC(=O)*; X3 = Cc1nc(C(=O)*)cs1; Sar = CNCC(=O)O

biological target: αvβ3 integrin (Homo sapiens, UniProt P05106+P06756); test: Inhibition of biotinylated LXW7 binding to αvβ3-K562 cells (flow cytometry); parameters: expressed in transfected cells; host or cells: K562 (gift of Dr. Yoshikazu Takada, UC Davis); settings: LXW9-92: inhibiting the binding of biotinylated LXW7 against αvβ3-K562 cells, LXW7 as internal reference
Sequence (P06756 31-889 limits assumed): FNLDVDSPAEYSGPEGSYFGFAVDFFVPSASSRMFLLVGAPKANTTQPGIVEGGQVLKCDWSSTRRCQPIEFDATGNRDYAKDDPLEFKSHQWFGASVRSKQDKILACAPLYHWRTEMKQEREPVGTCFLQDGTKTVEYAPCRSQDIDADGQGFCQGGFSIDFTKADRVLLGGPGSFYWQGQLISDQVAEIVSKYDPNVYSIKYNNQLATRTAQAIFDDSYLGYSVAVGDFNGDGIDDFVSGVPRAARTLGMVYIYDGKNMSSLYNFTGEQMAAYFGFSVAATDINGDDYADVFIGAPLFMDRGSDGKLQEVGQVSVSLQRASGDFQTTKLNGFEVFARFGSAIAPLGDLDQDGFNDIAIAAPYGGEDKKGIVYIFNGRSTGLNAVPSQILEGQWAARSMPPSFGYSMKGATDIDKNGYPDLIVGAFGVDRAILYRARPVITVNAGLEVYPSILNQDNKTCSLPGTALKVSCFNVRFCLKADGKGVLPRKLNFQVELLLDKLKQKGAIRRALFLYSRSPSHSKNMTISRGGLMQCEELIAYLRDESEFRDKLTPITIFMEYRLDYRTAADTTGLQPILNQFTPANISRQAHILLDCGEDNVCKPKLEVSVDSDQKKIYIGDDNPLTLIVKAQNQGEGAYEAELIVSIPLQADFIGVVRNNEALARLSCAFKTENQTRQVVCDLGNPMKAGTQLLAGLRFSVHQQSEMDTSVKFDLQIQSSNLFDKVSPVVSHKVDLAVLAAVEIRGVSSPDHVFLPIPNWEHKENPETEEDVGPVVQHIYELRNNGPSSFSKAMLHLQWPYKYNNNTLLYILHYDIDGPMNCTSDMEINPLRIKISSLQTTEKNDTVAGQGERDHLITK
Sequence (P06756 891-1048 partner limits assumed): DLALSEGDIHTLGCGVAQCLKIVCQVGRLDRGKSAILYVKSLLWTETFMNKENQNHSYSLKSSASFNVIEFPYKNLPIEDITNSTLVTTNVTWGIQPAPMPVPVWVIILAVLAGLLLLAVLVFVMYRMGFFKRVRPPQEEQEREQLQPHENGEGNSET
Sequence (P05106 27-788): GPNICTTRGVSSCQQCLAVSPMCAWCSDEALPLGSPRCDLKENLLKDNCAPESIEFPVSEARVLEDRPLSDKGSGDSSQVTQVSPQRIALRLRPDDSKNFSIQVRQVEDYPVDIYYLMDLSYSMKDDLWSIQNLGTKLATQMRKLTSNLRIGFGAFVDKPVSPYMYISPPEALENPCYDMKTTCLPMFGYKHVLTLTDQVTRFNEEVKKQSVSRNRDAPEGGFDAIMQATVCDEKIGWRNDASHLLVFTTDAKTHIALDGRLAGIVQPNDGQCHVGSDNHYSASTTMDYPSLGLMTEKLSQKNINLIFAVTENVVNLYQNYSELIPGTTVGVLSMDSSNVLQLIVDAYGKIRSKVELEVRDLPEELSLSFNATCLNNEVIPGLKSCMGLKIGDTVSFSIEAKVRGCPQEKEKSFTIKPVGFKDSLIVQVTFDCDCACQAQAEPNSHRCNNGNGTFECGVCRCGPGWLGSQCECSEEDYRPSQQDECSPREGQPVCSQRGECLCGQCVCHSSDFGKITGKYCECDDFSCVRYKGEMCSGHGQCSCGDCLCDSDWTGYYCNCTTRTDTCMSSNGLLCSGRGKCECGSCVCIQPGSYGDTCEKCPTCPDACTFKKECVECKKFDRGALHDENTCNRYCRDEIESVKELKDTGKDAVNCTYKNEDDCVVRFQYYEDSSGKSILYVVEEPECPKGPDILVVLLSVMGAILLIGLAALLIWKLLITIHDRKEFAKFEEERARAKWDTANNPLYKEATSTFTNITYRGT
Method: The apparent IC50 were calculated using Graph Prism software (≦www.graphpad.com≧).
The samples were analyzed with Coulter XL-MCL flow cytometry. The histogram and mean fluorescence intensity (MFI) were determined. The apparent Kd, IC50 were calculated using Graph Prism software (≦www.graphpad.com≧).

| IC50 | Compound |
| --- | --- |
| > 20 µM | CC(C)[C@H]1NC(=O)[C@@H](CC(=O)O)NC(=O)[C@H](CC(=O)O)NC(=O)CNC(=O)[C@H](CNC(=N)N)NC(=O)CNC(=O)[C@H](N)CSSC[C@H](C(N)=O)NC1=O [LXW58, cG-Agp-GDdvc] (H-[dC]G[Agp]GD[dD][dV][dC]-NH2; disulfide 1-8) |
| > 20 µM | CN1CC(=O)N[C@@H](CCCNC(=N)N)C(=O)NCC(=O)N[C@@H](CC(=O)O)C(=O)N[C@H](CC(=O)O)C(=O)NC2(CCOCC2)C(=O)N[C@H](C(N)=O)CSSC[C@@H](N)C1=O [LXY38, c-Sar-RGDd-Actp-C] |
| > 20 µM | N=C(N)NCCC[C@@H]1NC(=O)CNC(=O)[C@@H](N)CSSC[C@H](C(N)=O)NC(=O)[C@@H]2CC[C@H](c3ccccc3)N2C(=O)CN(CCC(=O)O)C(=O)[C@H](CC(=O)O)NC(=O)CNC1=O [LXW46, CGRGD-Nglu-Ppca-c] (H-CGRGD[N(CH2CH2COOH)Gly][Pro(5R-Ph)][dC]-NH2; disulfide 1-8) |
| > 20 µM | CC(C)[C@H]1NC(=O)[C@@H](CC(=O)O)NC(=O)[C@H](CC(=O)O)NC(=O)CNC(=O)[C@H](CCCNC(=N)N)NC(=O)CNC(=O)[C@@H](N)CSSC[C@@H](C(N)=O)NC1=O [LXW11, CGRGDdvC] (H-CGRGD[dD][dV]C-NH2; disulfide 1-8) |
| > 20 µM | CC[C@@H](C)[C@H]1NC(=O)C2(CCC(O)CC2)NC(=O)[C@H](CC(=O)O)NC(=O)CNC(=O)[C@H](CCCNC(=N)N)NC(=O)CN(C)C(=O)[C@H](N)CSSC[C@H](C(N)=O)NC1=O (stereo partly shown) [LXW32, c-Sar-RGD-Ahch-i c] (H-[dC][Sar]RGD[X2][dI][dC]-NH2; disulfide 1-8) |
| > 20 µM | CN1CC(=O)N[C@@H](CCCNC(=N)N)C(=O)NCC(=O)N[C@@H](CC(=O)O)C(=O)N[C@@H](Cc2ccc(OCC(=O)O)cc2)C(=O)N[C@H](CC(=O)O)C(=O)N[C@H](C(N)=O)CSSC[C@H](N)C1=O [LXW44, C-Sar-RGD-Bmp-dC] (H-C[Sar]RGDY(Carboxymethyl)[dD]C-NH2; disulfide 1-8) |

same assay, conditions: LXW9-92: inhibiting the binding of biotinylated LXW7 against αvβ3-K562 cells; class symbols

| IC50 | Compound |
| --- | --- |
| < 1 µM | CC[C@H]1NC(=O)[C@@H](CC(=O)O)NC(=O)[C@H](CC(=O)O)NC(=O)CNC(=O)[C@H](CCCNC(=N)N)NC(=O)CNC(=O)[C@H](N)CSSC[C@H](C(N)=O)NC1=O [LXW25, cGRGDd-DAbu-c] |
| < 1 µM | CC(C)[C@H]1NC(=O)[C@@H](CC(=O)O)NC(=O)[C@H](CC(=O)O)NC(=O)CNC(=O)[C@H](CCCNC(=N)N)NC(=O)CNC(=O)[C@H](NC(=O)CCC(=O)NCCOCCOCCN)CSSC[C@H](C(N)=O)NC1=O [LXW57, (Ebes)-cGRGDdvc] ({NH(CH2CH2O)2CH2CH2NH2-Suc}-[dC]GRGD[dD][dV][dC]-NH2; disulfide 1-8) |
| 1 to 10 µM | C#CC[C@H]1NC(=O)[C@@H](CC(=O)O)NC(=O)[C@H](CC(=O)O)NC(=O)CNC(=O)[C@H](CCCNC(=N)N)NC(=O)CNC(=O)[C@H](N)CSSC[C@@H](C(N)=O)NC1=O [LXW40, cGRGDd-DPra-C] |
| 1 to 10 µM | N=C(N)NCCC[C@@H]1NC(=O)CNC(=O)[C@@H](N)CSSC[C@@H](C(N)=O)NC(=O)[C@@H](Cc2cccc3ccccc23)NC(=O)[C@@H](CC(=O)O)NC(=O)[C@H](CC(=O)O)NC(=O)CNC1=O [LXW47, CGRGDd-DNal1-C] |
| < 1 µM | CC(C)[C@H]1NC(=O)[C@@H](CC(=O)O)NC(=O)[C@H](CC(=O)O)NC(=O)CNC(=O)[C@H](CCCNC(=N)N)NC(=O)CNC(=O)[C@H](NC(=O)c2cc(O)cc(O)c2)CSSC[C@H](C(N)=O)NC1=O [LXW83, 3,5-dihydroxy beznoyl-cGRGDdvc] ({Benzoyl(3,5-(OH)2)}-[dC]GRGD[dD][dV][dC]-NH2; disulfide 1-8) |
| 1 to 10 µM | N=C(N)NCCC[C@@H]1NC(=O)CNC(=O)[C@H](N)CSSC[C@H](C(N)=O)NC(=O)[C@@H](Cc2csc3ccccc23)NC(=O)[C@@H](CCCNC(N)=O)NC(=O)[C@H](CC(=O)O)NC(=O)CNC1=O [LXW73, cGRGD-DCit-DBta-c] (H-[dC]GRGD[dCit][dBta][dC]-NH2; disulfide 1-8) |
| 1 to 10 µM | CC[C@@H](C)[C@H]1NC(=O)[C@@H](CC(=O)O)NC(=O)[C@H](CC(=O)O)NC(=O)CNC(=O)[C@H](CCCNC(=N)N)NC(=O)CNC(=O)[C@H](N)CSSC[C@H](C(N)=O)NC1=O [LXW26, cGRGDdic] (H-[dC]GRGD[dD][dI][dC]-NH2; disulfide 1-8) |
| 1 to 10 µM | CC(C)[C@H]1NC(=O)[C@@H](CC(=O)O)NC(=O)[C@H](CC(=O)O)NC(=O)CNC(=O)[C@H](CCCNC(=N)N)NC(=O)CNC(=O)[C@H](NC(=O)c2cccnc2)CSSC[C@H](C(N)=O)NC1=O [LXW92, nicotinyl-cGRGDdvc] (Nicotinoyl-[dC]GRGD[dD][dV][dC]-NH2; disulfide 1-8) |
| 1 to 10 µM | N=C(N)NCCC[C@@H]1NC(=O)CNC(=O)[C@H](N)CSSC[C@H](C(N)=O)NC(=O)[C@@H](Cc2cscn2)NC(=O)[C@@H](CC(=O)O)NC(=O)[C@H](CC(=O)O)NC(=O)CNC1=O [LXW69, cGRGDd-DTha-c] |
| 1 to 10 µM | CC(C)[C@H]1NC(=O)[C@@H](CC(=O)O)NC(=O)[C@H](CC(=O)O)NC(=O)CNC(=O)[C@H](CCCNC(=N)N)NC(=O)[C@@H](C)NC(=O)[C@H](N)CSSC[C@H](C(N)=O)NC1=O [LXW13, caRGDdvc] (H-[dC][dA]RGD[dD][dV][dC]-NH2; disulfide 1-8) |
| < 1 µM | CC(C)C(=O)N[C@@H]1CSSC[C@H](C(N)=O)NC(=O)[C@@H](C(C)C)NC(=O)[C@@H](CC(=O)O)NC(=O)[C@H](CC(=O)O)NC(=O)CNC(=O)[C@H](CCCNC(=N)N)NC(=O)CNC1=O [LXW76, isobutyryl-cGRGDdvc] (Isobutyryl-[dC]GRGD[dD][dV][dC]-NH2; disulfide 1-8) |
| < 1 µM | N=C(N)NCCC[C@@H]1NC(=O)CNC(=O)[C@H](N)CSSC[C@H](C(N)=O)NC(=O)[C@@H](Cc2cccs2)NC(=O)[C@@H](CC(=O)O)NC(=O)[C@H](CC(=O)O)NC(=O)CNC1=O [LXW67, cGRGDd-D2Thi-c] |
| > 10 µM | C#CC[C@H]1NC(=O)[C@@H](CC(=O)O)NC(=O)[C@H](CC(=O)O)NC(=O)CNC(=O)[C@H](CCCNC(=N)N)NC(=O)CN(C)C(=O)[C@H](N)CSSC[C@@H](C(N)=O)NC1=O [LXW37, c-Sar-RGDd-DPra-C] |
| > 10 µM | N=C(N)NCCC[C@@H]1NC(=O)CNC(=O)[C@@H](N)CSSC[C@@H](C(N)=O)NC(=O)[C@@H](Cc2cscn2)NC(=O)[C@@H](CC(=O)O)NC(=O)[C@H](CC(=O)O)NC(=O)CNC1=O [LXW39, CGRGDd-DTha-C] |
| > 10 µM | C#CC[C@H]1NC(=O)[C@@H](CC(=O)O)NC(=O)[C@H](CC(=O)O)NC(=O)CNC(=O)[C@H](CCCNC(=N)N)NC(=O)CN(C)C(=O)[C@@H](N)CSSC[C@@H](C(N)=O)NC1=O [LXW35, C-Sar-RGDd-DPra-C] |
| < 1 µM | CC(C)[C@@H]1C(=O)N[C@@H](C(N)=O)CSSC[C@@H](N)C(=O)NCC(=O)N[C@@H](CCCNC(=N)N)C(=O)NCC(=O)N[C@@H](CC(=O)O)C(=O)N[C@H](CC(=O)O)C(=O)N1C [LXW22, cGRGDd-D(NMe)Val-c] |
| 1 to 10 µM | CC(C)[C@H]1NC(=O)[C@@H](CC(=O)O)NC(=O)[C@H](CC(=O)O)NC(=O)CNC(=O)[C@H](CCCNC(=N)N)NC(=O)CNC(=O)[C@H](N)CSSC(C)(C)[C@H](C(N)=O)NC1=O [LXW21, cGRGDdv-DPen] (H-[dC]GRGD[dD][dV][dPen]-NH2; disulfide 1-8) |
| < 1 µM | N=C(N)NCCC[C@@H]1NC(=O)CNC(=O)[C@H](N)CSSC[C@H](C(N)=O)NC(=O)[C@@H](Cc2ccsc2)NC(=O)[C@@H](CC(=O)O)NC(=O)[C@H](CC(=O)O)NC(=O)CNC1=O [LXW66, cGRGDd-D3Thi-c] |
| 1 to 10 µM | CC(C)[C@H]1NC(=O)[C@@H](CC(=O)O)NC(=O)[C@H](CC(=O)O)NC(=O)CNC(=O)[C@H](CCCNC(=N)N)NC(=O)CNC(=O)[C@H](N)C(C)(C)SSC[C@H](C(N)=O)NC1=O [LXW20, DPen-GRGDdvc] (H-[dPen]GRGD[dD][dV][dC]-NH2; disulfide 1-8) |
| 1 to 10 µM | CC(C)[C@H]1NC(=O)[C@@H](CC(=O)O)NC(=O)[C@H](CC(=O)O)NC(=O)CNC(=O)[C@H](CCCNC(=N)N)NC(=O)CN(C)C(=O)[C@H](N)CSSC[C@H](C(N)=O)NC1=O [LXW14, c-Sar-RGDdvc] (H-[dC][Sar]RGD[dD][dV][dC]-NH2; disulfide 1-8) |
| 1 to 10 µM | CCCCC(=O)N[C@@H]1CSSC[C@H](C(N)=O)NC(=O)[C@@H](C(C)C)NC(=O)[C@@H](CC(=O)O)NC(=O)[C@H](CC(=O)O)NC(=O)CNC(=O)[C@H](CCCNC(=N)N)NC(=O)CNC1=O [LXW77, valeryl-cGRGDdvc] (Pentanoyl-[dC]GRGD[dD][dV][dC]-NH2; disulfide 1-8) |
| < 1 µM | N=C(N)NCCC[C@@H]1NC(=O)CNC(=O)[C@H](N)CSSC[C@H](C(N)=O)NC(=O)[C@@H](Cc2ccc3ccccc3c2)NC(=O)[C@@H](CC(=O)O)NC(=O)[C@H](CC(=O)O)NC(=O)CNC1=O [LXW65, cGRGDd-DNal2-c] |
| < 1 µM | N=C(N)NCCC[C@@H]1NC(=O)CNC(=O)[C@H](N)CSSC[C@H](C(N)=O)NC(=O)[C@@H](Cc2c[nH]c3ccccc23)NC(=O)[C@@H](CC(=O)O)NC(=O)[C@H](CC(=O)O)NC(=O)CNC1=O [LXW68, cGRGDdwc] (H-[dC]GRGD[dD][dW][dC]-NH2; disulfide 1-8) |
| < 1 µM | CC(C)[C@H]1NC(=O)[C@@H](CC(=O)O)NC(=O)[C@H](CC(=O)O)NC(=O)CNC(=O)[C@H](CCCNC(=N)N)NC(=O)CNC(=O)[C@H](NC(=O)CCc2ccccc2)CSSC[C@H](C(N)=O)NC1=O [LXW80, 3-phenyl propionyl-cGRGDdvc] (Hydrocinnamoyl-[dC]GRGD[dD][dV][dC]-NH2; disulfide 1-8) |
| < 1 µM | Cc1nc(C(=O)N[C@@H]2CSSC[C@H](C(N)=O)NC(=O)[C@@H](C(C)C)NC(=O)[C@@H](CC(=O)O)NC(=O)[C@H](CC(=O)O)NC(=O)CNC(=O)[C@H](CCCNC(=N)N)NC(=O)CNC2=O)cs1 [LXW86, 2-Methylthiazole-4-carbonyl-cGRGDdvc] (X3-[dC]GRGD[dD][dV][dC]-NH2; disulfide 1-8) |
